According to PMC6604423, “A New Flavanone as a Potent Antioxidant Isolated from Chromolaena odorata L. Leaves” (Evidence-based Complementary and Alternative Medicine : eCAM, 2019):
Read-outs that look alike come from different tables or passages of the source.

Legend:
[1] = target: α-glucosidase rat intestine enzyme; test: α-Glucosidase inhibitory activity assay (rat intestinal acetone powder, maltose substrate); type: biochemical; conditions: 10 mM maltose, pH 6.9, 37°C, 10 min, mean ± SD, triplicate
Experimental: First, rat intestinal acetone powder (1 g) was suspended in 30 mL of normal saline. This suspended solution was sonicated for five minutes at 4°C. After centrifugation (12,000 rpm, 30 minutes, 4°C), the resulting supernatant was used for the assay. Briefly, a mixture of 10 μL samples, 30 μL of 0.1 M phosphate buffer (pH 6.9), 20 μL of 10 mM maltose, 80 μL glucose kit, and 20 μL of enzyme supernatant were incubated in 96-well plates at 37°C for 10 minutes. Acarbose was used as a standard. The absorbance was recorded at 490 nm by microplate reader (Biotek ELx800UV). The inhibitory activity was determined from the formula as follows:(2) Inhibition%=Ablank−Asample/Ablank×100 where Ablank = Aenzyme reaction − Ablank of enzyme reaction and Asample = Asample reaction − Ablank of sample reaction.

[2] = DPPH radical scavenging assay; conditions: 20 min, room temperature, 517 nm; mean ± SD, triplicate
Experimental: First, DPPH solution (6 × 10^−5 M) was separated by dissolving 2.37 mg of DPPH in 100 mL of methanol to obtain a working solution. […] Finally, the mixed sample solution was incubated for 20 minutes at room temperature. Then, the absorbance (As) of the reaction mixture was measured by UV-Vis spectrophotometer at 517 nm. The mixed solution between methanol and the working solution was used as blank to give the blank absorbance (Ab). Gallic acid was used as a standard. The inhibitory activity was calculated by (1).

[3] = ABTS radical cation scavenging assay; conditions: for ABTS IC50: 4 min, room temperature, 734 nm, mean ± SD, triplicate; for IC50: same result expressed in μM
Experimental: Free radical scavenging by ABTS radical was based on the method described previously by us. […] Those two solutions were mixed and incubated for 12-16 hours to obtain ABTS radical cation solution which is a dark blue solution. It was added with ± 274 mL of ethanol to give an absorbance of 0.7 ± 0.02 units at 734 nm for making a working solution. 1 mL of working solution was mixed with 10 μL of samples (n-hexane, dichloromethane, ethyl acetate, methanol, and water extracts) at maximum dissolved concentration in DMSO and mixed well. Finally, the mixed sample solution was incubated for four minutes at room temperature; then, the absorbance (As) of the reaction mixture was measured by UV-Vis spectrophotometers at 734 nm. The mixed solution between DMSO and the working solution was used as blank to give the blank absorbance (Ab). Trolox was used as a standard. […] The IC50 value was expressed as a quantity of an extract inhibitory concentration against a half of ABTS radicals.

[4] = in vitro, C. odorata leaves; cited from earlier work

Compound: C[C@H]1O[C@H](O[C@H]2[C@H](O)[C@@H](O)[C@@H](O[C@H]3[C@H](O)[C@@H](O)C(O)O[C@@H]3CO)O[C@@H]2CO)[C@H](O)[C@@H](O)[C@@H]1N[C@H]1C=C(CO)[C@@H](O)[C@H](O)[C@H]1O (some centres unmarked) [Acarbose, acarbose]
- α-Glucosidase inhibition IC50 [1]: 7.67 ± 1.86 µg/mL

Compound: O=C(O)c1cc(O)c(O)c(O)c1 [Gallic acid, gallic acid]
- DPPH IC50 [2]: 1.11 ± 0.42 µg/mL

Compound: COc1cc(O)c2c(c1)OC(c1cc(O)ccc1OC)CC2=O (centres unmarked) [Odoratenin (1), 5,3'-dihydroxy-7,6'-dimethoxyflavanone]
- α-Glucosidase inhibition IC50 [1]: >62.5 µg/mL
- ABTS IC50 [3]: 7.51 ± 1.57 µg/mL
- IC50 [3]: 23.7 µM

Compound: Cc1c(C)c2c(c(C)c1O)CCC(C)(C(=O)O)O2 (centres unmarked) [Trolox, 6-hydroxy-2,5,7,8-tetramethylchromen-2-carboxylate acid]
- ABTS IC50 [3]: 7.84 ± 0.45 µg/mL
- IC50 [3]: 31.3 µM

Compound: O=C1O[C@H]([C@@H](O)CO)C(O)=C1O [ascorbic acid]
- ABTS IC50 [4]: 1.00 mg/mL
